Experimental data: patent US20120328569A1, “INHIBITORS OF HEPATITIS C VIRUS NS5B POLYMERASE” (priority 2010, published 2012)

System: HCV genotype 1b replicon
Assay: HCV replicon assay, cell ELISA with antibody to replicon-encoded NS3/4A (genotype 1b replicon)
Type: cell-based, hepatitis C virus
Details: Hepatitis C virus, 96 h, read-out: 1b IC50(nM), HCV genotype 1b replicon; 96 hours incubation; NS3/4A cell ELISA
Summary of the method: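 An ELISA on lysed cells, using an antibody against NS3/4A protease, served as the proxy for replicon RNA. Cells had first been exposed for 96 h to serially diluted compound in G418-free conditions. Percent of DMSO control was fitted with a four-parameter function to give IC50.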

SMILES	IC50 [nM]
CNC(=O)c1c(-c2ccc(F)cc2)oc2cc(N(CC3CCS(=O)(=O)C3)S(C)(=O)=O)c(-c3cccc(-c4nc5ncccc5o4)c3)cc12 (stereo not drawn) [Example 719]	3.14
CNC(=O)c1c(-c2ccc(F)cc2)oc2cc(N(CCC(F)(F)F)S(C)(=O)=O)c(-c3cccc(-c4nc5ncccc5o4)c3)cc12 [Example 872]	4.7
CNC(=O)c1c(-c2ccc(F)cc2)oc2cc(N(CC(O)CCF)S(C)(=O)=O)c(-c3ccc(OC)c(-c4nc5c(F)cccc5o4)c3)cc12 (stereo not drawn) [Example 815]	11.8
CNC(=O)c1c(-c2ccc(F)cc2)oc2cc(N(CC3(C#N)CC3)S(C)(=O)=O)c(-c3ccc(OC)c(-c4nc5c(F)cc(F)cc5o4)c3)cc12 [Example 738]	7.62
CNC(=O)c1c(-c2ccc(F)cc2)oc2cc(N(C)S(C)(=O)=O)c(C#Cc3ccccc3)cc12 [Example 547]	23.2
CNC(=O)c1ccc(-c2cc3c(C(=O)NC)c(-c4ccc(F)cc4)oc3cc2N(C)S(C)(=O)=O)cc1-c1nc2c(F)cccc2o1 [Example 656]	8.41
CNC(=O)c1c(-c2ccc(F)cc2)oc2cc(N(CC(F)F)S(C)(=O)=O)c(-c3cccc(-c4nc5ncccc5o4)c3)cc12 [Example 869]	2.3
CNC(=O)c1c(-c2ccc(F)cc2)oc2cc(N(C)S(C)(=O)=O)c(-c3cc(OC)cc(-c4nc5ncccc5o4)c3)cc12 [Example 866]	3.1
CNC(=O)c1c(-c2ccc(F)cc2)oc2cc(N(C)S(C)(=O)=O)c(-c3cccc(-c4cc5c(F)cc(F)cc5s4)c3)cc12 [Example 685]	12
CNC(=O)c1c(-c2ccc(F)cc2)oc2cc(N(CC(F)F)S(C)(=O)=O)c(-c3ccc(OC)c(-c4nc5cccc(F)c5o4)c3)cc12 [Example 878]	17.2

Same assay, conditions: Hepatitis C virus, 96 h, read-out: Replicon 1b IC50 (nM), HCV genotype 1b replicon cells, 96 hours incubation, NS3/4A ELISA readout

SMILES	IC50 [nM]
CNC(=O)c1c(-c2ccc(F)cc2)oc2cc(N(C)S(C)(=O)=O)c(-c3ccc(Cl)c(-c4nc5cc(Cl)cnc5[nH]4)c3)cc12 [Example 322]	19.5
CNC(=O)c1c(-c2ccc(F)cc2)oc2cc(N(C)S(C)(=O)=O)c(-c3cccc(-c4nc5ncc(F)cc5o4)c3)cc12 [Example 201]	1.7
CONC(=O)c1c(-c2ccc(F)cc2)oc2cc(N(CCN(C)c3ccccc3)S(C)(=O)=O)c(-c3ccccc3)cc12 [Example 8, 2-(4-fluorophenyl)-N-methoxy-6-[{2-[methyl(phenyl)amino]ethyl} (methylsulfonyl)amino]-5-phenyl-1-benzofuran-3-carboxamide]	276
CNC(=O)c1c(-c2ccc(F)cc2)oc2cc(N(C)S(C)(=O)=O)c(-c3cccc(-c4nc5ccc(F)cc5o4)c3)cc12 [Example 159]	1.8
CNC(=O)c1c(-c2ccc(F)cc2)oc2cc(N(C)S(C)(=O)=O)c(-c3cc(F)cc(-c4nc5c(C)ccnc5[nH]4)c3)cc12 [Example 307]	2.4
CNC(=O)c1c(-c2ccc(F)cc2)oc2cc(N(C)S(C)(=O)=O)c(-c3ccc(OC)c(-c4nc5c(F)cc(F)cc5o4)c3)cc12 [Example 408]	3.8
CNC(=O)c1c(-c2ccc(F)cc2)oc2cc(N(CCC3CCCCC3)S(C)(=O)=O)c(-c3ccccc3)cc12 [Example 27, 6-[(2-cyclohexylethyl) (methylsulfonyl)amino]-2-(4-fluorophenyl)-N-methyl-5-phenyl-1-benzofuran-3-carboxamide]	384
CNC(=O)c1c(-c2ccc(F)cc2)oc2cc(N(C)S(C)(=O)=O)c(-c3ccc(F)c(-c4nc5cc(Cl)cnc5[nH]4)c3)cc12 [Example 311]	1.7
CNC(=O)c1c(-c2ccc(F)cc2)oc2cc(N(C)S(C)(=O)=O)c(-c3cc(-c4nc5ncccc5o4)c(OC)cc3F)cc12 [Example 207]	2.4
CNC(=O)c1c(-c2ccc(F)cc2)oc2cc(N(CCCC(C)C)S(C)(=O)=O)c(-c3ccccc3)cc12 [Example 25, 2-(4-fluorophenyl)-N-methyl-6-[(4-methylpentyl) (methylsulfonyl)amino]-5-phenyl-1-benzofuran-3-carboxamide]	166
CNC(=O)c1c(-c2ccc(F)cc2)oc2cc(N(C)S(C)(=O)=O)c(-c3cccc(-c4nc5cnccc5s4)c3)cc12 [Example 262]	5
CNC(=O)c1c(-c2ccc(F)cc2)oc2cc(N(C)S(C)(=O)=O)c(-c3cc(-c4nc5ccncc5[nH]4)ccc3F)cc12 [Example 335]	26.4
CNC(=O)c1c(-c2ccc(F)cc2)oc2cc(N(C)S(C)(=O)=O)c(-c3ccc(F)cc3)cc12 [Example 87, 2,5-bis(4-fluorophenyl)-N-methyl-6-[methyl (methylsulfonyl)amino]-1-benzofuran-3-carboxamide]	39
CNC(=O)c1c(-c2ccc(F)cc2)oc2cc(N(C)S(C)(=O)=O)c(-c3ccc(F)c(-c4nc5ccc(OC)nc5[nH]4)c3)cc12 [Example 309]	3.7
CNC(=O)c1c(-c2ccc(F)cc2)oc2cc(N(C)S(C)(=O)=O)c(-c3cccc(-c4nc5ccncc5s4)c3)cc12 [Example 264]	2.9
CNC(=O)c1c(-c2ccc(F)cc2)oc2cc(N(C)S(C)(=O)=O)c(-c3ccc(F)c(-c4cc5cccnc5[nH]4)c3)cc12 [Compound 380]	1.2
CNC(=O)c1c(-c2ccc(F)cc2)oc2cc(N(C)S(C)(=O)=O)c(-c3ccc(OC)c(-c4nc5ccc(F)cc5o4)c3)cc12 [Example 185]	2.2
CNC(=O)c1c(-c2ccc(F)cc2)oc2cc(N(C)S(C)(=O)=O)c(-c3ccc(F)c(-c4nc5ccncc5[nH]4)c3)cc12 [Example 334]	3.3
CNC(=O)c1c(-c2ccc(F)cc2)oc2cc(N(C)S(C)(=O)=O)c(-c3ccc(F)c(-c4nc5cccnc5s4)c3)cc12 [Example 246]	3.6

SMILES	IC50 [nM]
CONC(=O)c1c(-c2ccc(F)cc2)oc2cc(N(C)S(C)(=O)=O)c(-c3ccccc3OC)cc12 [Example 91, 2-(4-fluorophenyl)-N-methoxy-5-(2-methoxyphenyl)-6-[methyl (methylsulfonyl)amino]-1-benzofuran-3-carboxamide]	342
CNC(=O)c1c(-c2ccc(F)cc2)oc2cc(N(C)S(C)(=O)=O)c(-c3cccc(-c4nnn(Cc5ccccc5)n4)c3)cc12 [Example 139, 5-[3-(2-benzyl-2H-tetrazol-5-yl)phenyl]-2-(4-fluorophenyl)-N-methyl-6-[methyl (methylsulfonyl)amino]-1-benzofuran-3-carboxamide]	5
CNC(=O)c1c(-c2ccc(F)cc2)oc2cc(N(C)S(C)(=O)=O)c(-c3ccc(OC)c(-c4nc5cccnc5o4)c3)cc12 [Example 225]	3.6
CNC(=O)c1c(-c2ccc(F)cc2)oc2cc(N(C)S(C)(=O)=O)c(-c3cc(F)cc(-c4nc5ccc(OC)nc5[nH]4)c3)cc12 [Example 306]	28.8
CNC(=O)c1c(-c2ccc(F)cc2)oc2cc(N(C)S(C)(=O)=O)c(-c3cc(F)cc(-c4nc5ncccc5o4)c3)cc12 [Example 198]	1.4
CNC(=O)c1c(-c2ccc(F)cc2)oc2cc(N(C)S(C)(=O)=O)c(-c3cccc(-c4nc5cc(F)cnc5o4)c3)cc12 [Example 224]	2.3
CNC(=O)c1c(-c2ccc(F)cc2)oc2cc(N(C)S(C)(=O)=O)c(-c3cccc(-c4nc5ccc(F)cc5s4)c3)cc12 [Example 147, 5-[3-(6-fluoro-1,3-benzothiazol-2-yl)phenyl]-2-(4-fluorophenyl)-N-methyl-6-[methyl (methylsulfonyl)amino]-1-benzofuran-3-carboxamide]	7
CNC(=O)c1c(-c2ccc(F)cc2)oc2cc(N(C)S(C)(=O)=O)c(-c3cc(C)cc(-c4nc5ncccc5o4)c3)cc12 [Example 210]	1.9
CNC(=O)c1c(-c2ccc(F)cc2)oc2cc(N(C)S(C)(=O)=O)c(-c3cc(-c4nc5cccnc5o4)ccc3F)cc12 [Example 222]	3.5
CNC(=O)c1c(-c2ccc(F)cc2)oc2cc(N(C)S(C)(=O)=O)c(-c3ccc(F)c(-c4nc5ncccc5s4)c3)cc12 [Example 260]	3.7
CNC(=O)c1c(-c2ccc(F)cc2)oc2cc(N(C)S(C)(=O)=O)c(-c3cc(-c4nc5ccccc5o4)c(OC)cc3F)cc12 [Example 180]	5
CNC(=O)c1c(-c2ccc(F)cc2)oc2cc(N(C)S(C)(=O)=O)c(-c3ccc(OC)cc3)cc12 [Example 89, 2-(4-fluorophenyl)-5-(4-methoxyphenyl)-N-methyl-6-[methyl (methylsulfonyl)amino]-1-benzofuran-3-carboxamide]	23
CNC(=O)c1c(-c2ccc(F)cc2)oc2cc(N(C)S(C)(=O)=O)c(-c3cccc(-c4nc5ccc(NC(=O)c6ccccc6)cc5o4)c3)cc12 [Example 283]	17.2
CNC(=O)c1c(-c2ccc(F)cc2)oc2cc(N(C)S(C)(=O)=O)c(-c3ccc(CNS(=O)(=O)c4ccccc4)cc3)cc12 [Example 105, 2-(4-fluorophenyl)-N-methyl-6-[methyl (methylsulfonyl)amino]-5-(4-{[(phenylsulfonyl)amino]methyl}phenyl)-1-benzofuran-3-carboxamide]	57
CNC(=O)c1c(-c2ccc(F)cc2)oc2cc(N(C)S(C)(=O)=O)c(-c3cc(F)cc(-c4nc5cccc(C)c5o4)c3)cc12 [Example 167]	10.4
CNC(=O)c1c(-c2ccc(F)cc2)oc2cc(N(C)S(C)(=O)=O)c(-c3cc(F)c(F)c(-c4nc5cccnc5o4)c3)cc12 [Example 244]	1.3
CNC(=O)c1c(-c2ccc(F)cc2)oc2cc(N(C)S(C)(=O)=O)c(-c3cccc(-c4nc5ccccc5o4)c3OC)cc12 [Example 157]	22.7
CCN(c1cc2oc(-c3ccc(F)cc3)c(C(=O)NC)c2cc1-c1ccccc1)S(C)(=O)=O [Example 5, 6-[ethyl (methylsulfonyl)amino]-2-(4-fluorophenyl)-N-methyl-5-phenyl-1-benzofuran-3-carboxamide]	47

Same assay, conditions: read-out: 1b IC50; HCV genotype 1b replicon; 96 hours incubation; NS3/4A cell ELISA

SMILES	IC50 [nM]
CNC(=O)c1c(-c2ccc(F)cc2)oc2cc(N(CC(O)Cn3ccnc3)S(C)(=O)=O)c(-c3ccc(OC)c(-c4nc5c(F)cccc5o4)c3)cc12 (stereo not drawn) [Example 824]	17.7
